Laboratory results from patent US12331040B2 (Karyopharm Therapeutics Inc., priority 2013, dated 2025).
Read-outs that look alike come from different tables or passages of the source.

How the values were obtained:
Assay in all cases: MTT cell proliferation assay
Format in all cases: cell-based
[1] = test system: Z138 cells; conditions: Homo sapiens, Z-138, Z138 cells, approximately 64-72 hours incubation
Method: (§1) The MTT cell proliferation assay was used to study the cytotoxic properties of the compounds. The assay was performed according to the method described by Roche Molecular Biochemicals, with minor modifications. The assay is based on the cleavage of the tetrazolium salt, MTT, in the presence of an electron-coupling reagent. The water-insoluble formazan salt produced must be solubilized in an additional step. Cells grown in a 96-well tissue culture plate were incubated with the MTT solution for approximately 4 hours. After this incubation period, a water-insoluble formazan dye formed. After solubilization, the formazan dye was quantitated using a scanning multi-well spectrophotometer (ELISA reader). […] The cells were seeded at 5,000-10,000 cells in each well of 96-well plate in 100 μL of fresh culture medium and were allowed to attach overnight. The stock solutions of the compounds were diluted in 100 μL cell culture medium to obtain eight concentrations of each test compound, ranging from 1 nM to 30 μM. […] All optical densities were measured at 490 nm using a Vmax Kinetic Microplate Reader (Molecular Devices). In most cases, the assay was performed in duplicate and the results were presented as a mean percent inhibition to the negative control±SE. The following formula was used to calculate the percent of inhibition: Inhibition (%)=(1−(ODo/OD))×100.
(§2) The compounds were tested against MS751, Z138 and 3T3 cells. The MS751 cell line is derived from a metastasis to lymph node of human cervix from a patient diagnosed with squamous cell carcinoma of the cervix. The Z138 cell line is a mature B-cell acute lymphoblastic leukemia cell line derived from a patient with chronic lymphocytic leukemia. 3T3 cells are standard fibroblast cells; they were originally isolated from Swiss mouse embryo tissue.

[2] = test system: 3T3 cells; conditions: Mus musculus, NIH3T3, approximately 64-72 hours incubation
Method: as §1, §2

[3] = test system: MS751 cells; conditions: Homo sapiens, MS751, MS751 cells, approximately 64-72 hours incubation
Method: as §1, §2

[4] = read-out: MTT Assay IC50 MS-751
[5] = read-out: MTT Assay IC50, Z-138
[6] = read-out: MTT Assay IC50, MS-751

| Structure (SMILES) | IC50 ([1]; read-out: MTT Assay IC50 Z-138) | IC50 ([2]; read-out: MTT Assay IC50 3T3) | IC50 [3, 4] | IC50 [1, 5] | IC50 ([2]; read-out: MTT Assay IC50, 3T3) | IC50 [3, 6] |
| --- | --- | --- | --- | --- | --- | --- |
| CN1CCN(C(=O)c2ccc(-c3cc(Cl)c4oc(CNC(=O)/C=C/c5ccc(N)nc5)cc4c3)nc2)CC1 [Compound 584, (E)-3-(6-aminopyridin-3-yl)-N-((7-chloro-5-(5-(4-methylpiperazine-1-carbonyl)pyridin-2-yl)benzofuran-2-yl)methyl)acrylamide] | < 0.1 µM | 5 to 10 µM | < 0.1 µM |  |  |  |
| Nc1ccc(/C=C/C(=O)NCc2cc3cc(-c4ccc(C(=O)N5CCC(F)(F)CC5)cc4)cc(-c4ccc(F)cc4F)c3o2)cn1 [Compound 736, (E)-3-(6-aminopyridin-3-yl)-N-((7-(2,4-difluorophenyl)-5-(4-(4,4-difluoropiperidine-1-carbonyl)phenyl)benzofuran-2-yl)methyl)acrylamide] |  |  |  | < 0.1 µM | 0.1 to 5 µM | < 0.1 µM |
| Nc1ccc(/C=C/C(=O)NCc2cc3cc(-c4ccc(C(=O)N5CCC(F)(F)CC5)cn4)cnc3o2)cn1 [Compound 658, (E)-3-(6-aminopyridin-3-yl)-N-((5-(5-(4,4-difluoropiperidine-1-carbonyl)pyridin-2-yl)furo[2,3-b]pyridin-2-yl)methyl)acrylamide] |  |  |  | 0.1 to 5 µM | > 10 µM | 0.1 to 5 µM |
| CC1(O)CCN(C(=O)c2ccc(-c3cc(C(F)(F)F)c4oc(CNC(=O)/C=C/c5ccc(N)nc5)cc4c3)cc2)CC1 [Compound 571, (E)-3-(6-aminopyridin-3-yl)-N-((5-(4-(4-hydroxy-4-methylpiperidine-1-carbonyl)phenyl)-7-(trifluoromethyl)benzofuran-2-yl)methyl)acrylamide] | < 0.1 µM | > 10 µM | 0.1 to 5 µM |  |  |  |
| O=C(/C=C/c1cccnc1)NCc1cc2cc(-c3ccc(C(=O)N4CCOCC4)cc3)cc(Cl)c2o1 [Compound 538, (E)-N-((7-chloro-5-(4-(morpholine-4-carbonyl)phenyl)benzofuran-2-yl)methyl)-3-(pyridin-3-yl)acrylamide] | 0.1 to 5 µM | 0.1 to 5 µM | 0.1 to 5 µM |  |  |  |
| Nc1ccc(/C=C/C(=O)NCc2cc3cc(-c4ccc(C(=O)N5CCC(F)(F)CC5)cn4)cc(Cl)c3o2)cn1 [Compound 591, (E)-3-(6-aminopyridin-3-yl)-N-((7-chloro-5-(5-(4,4-difluoropiperidine-1-carbonyl)pyridin-2-yl)benzofuran-2-yl)methyl)acrylamide] | 0.1 to 5 µM | > 10 µM | 0.1 to 5 µM |  |  |  |
| Nc1ccc(/C=C/C(=O)NCc2cc3cc(-c4ccc(S(=O)(=O)N5CC(F)(F)C5)cc4)cc(C(F)(F)F)c3o2)cn1 [Compound 644, (E)-3-(6-aminopyridin-3-yl)-N-((5-(4-(3,3-difluoroazetidin-1-ylsulfonyl)phenyl)-7-(trifluoromethyl)benzofuran-2-yl)methyl)acrylamide] | 0.1 to 5 µM | > 10 µM | 5 to 10 µM |  |  |  |
| Nc1ccc(/C=C/C(=O)NCc2cc3cc(-c4cnc(C(=O)N5CCOCC5)c(F)c4)cc(Cl)c3o2)cn1 [Compound 544, (E)-3-(6-aminopyridin-3-yl)-N-((7-chloro-5-(5-fluoro-6-(morpholine-4-carbonyl)pyridin-3-yl)benzofuran-2-yl)methyl)acrylamide] | 0.1 to 5 µM | > 10 µM | 0.1 to 5 µM |  |  |  |
| Nc1ccc(/C=C/C(=O)NCc2cc3c(Cl)cc(-c4ccc(C(=O)N5CCC(F)(F)CC5)cc4)cc3o2)cn1 [Compound 714] |  |  |  | 0.1 to 5 µM | > 10 µM | 0.1 to 5 µM |
| Nc1ccc(/C=C/C(=O)NCc2cc3cc(-c4cnc(C(=O)N5CCOCC5)nc4)cc(Cl)c3o2)cn1 [Compound 546, (E)-3-(6-Aminopyridin-3-yl)-N-((7-chloro-5-(2-(morpholine-4-carbonyl)pyrimidin-5-yl)benzofuran-2-yl)methyl)acrylamide] | 0.1 to 5 µM | > 10 µM | 0.1 to 5 µM |  |  |  |
| Nc1ccc(/C=C/C(=O)NCc2cc3cc(-c4ccc(C(=S)N5CCC(F)(F)CC5)cn4)cc(-c4ccc(F)cc4F)c3o2)cn1 [Compound 708, (E)-3-(6-aminopyridin-3-yl)-N-((7-(2,4-difluorophenyl)-5-(5-(4,4-difluoropiperidine-1-carbonothioyl)pyridin-2-yl)benzofuran-2-yl)methyl)acrylamide] |  |  |  | < 0.1 µM | 0.1 to 5 µM | < 0.1 µM |
| Nc1ccc(/C=C/C(=O)NCc2cc3cc(-c4ccc(C(=O)c5ccc(F)cc5)cn4)cc(-c4ccc(F)cc4)c3o2)cn1 [Compound 703, (E)-3-(6-aminopyridin-3-yl)-N-((5-(5-(4-fluorobenzoyl)pyridin-2-yl)-7-(4-fluorophenyl)benzofuran-2-yl)methyl)acrylamide] |  |  |  | < 0.1 µM | 5 to 10 µM | 0.1 to 5 µM |
| Nc1ccc(/C=C/C(=O)NCc2cc3cc(-c4ccc(C(=O)N5CCC(F)(F)CC5)cn4)cc(-c4ccc(F)cc4)c3o2)cn1 [Compound 665, (E)-3-(6-aminopyridin-3-yl)-N-((5-(5-(4,4-difluoropiperidine-1-carbonyl)pyridin-2-yl)-7-(4-fluorophenyl)benzofuran-2-yl)methyl)acrylamide] |  |  |  | < 0.1 µM | 0.1 to 5 µM | < 0.1 µM |
| Nc1ccc(/C=C/C(=O)NCc2cc3c(-c4ccc(C(=O)N5CCC(F)(F)CC5)cn4)cc(C(F)(F)F)cc3o2)cn1 [Compound 761, (E)-3-(6-aminopyridin-3-yl)-N-((4-(5-(4,4-difluoropiperidine-1-carbonyl)pyridin-2-yl)-6-(trifluoromethyl)benzofuran-2-yl)methyl)acrylamide] |  |  |  | > 10 µM | > 10 µM | > 10 µM |
| Nc1ccc(/C=C/C(=O)NCc2cc3cc(-c4ccc(C(=O)N5CC[C@H](F)C5)cn4)cc(C(F)(F)F)c3o2)cn1 [Compound 570, (S,E)-3-(6-aminopyridin-3-yl)-N-((5-(5-(3-fluoropyrrolidine-1-carbonyl)pyridin-2-yl)-7-(trifluoromethyl)benzofuran-2-yl)methyl)acrylamide] | < 0.1 µM | > 10 µM | 0.1 to 5 µM |  |  |  |
| Nc1ccc(/C=C/C(=O)NCc2cc3cc(-c4cc(C(=O)N5CCOCC5)c(F)cn4)cc(Cl)c3o2)cn1 [Compound 588, (E)-3-(6-aminopyridin-3-yl)-N-((7-chloro-5-(5-fluoro-4-(morpholine-4-carbonyl)pyridin-2-yl)benzofuran-2-yl)methyl)acrylamide] | < 0.1 µM | 0.1 to 5 µM | < 0.1 µM |  |  |  |
| Nc1ccc(/C=C/C(=O)NCc2cc3cc(-c4cccc(OC(=O)N5CCOCC5)c4)cc(C(F)(F)F)c3o2)cn1 [Compound 558, (E)-3-(2-((3-(6-aminopyridin-3-yl)acrylamido)methyl)-7-(trifluoromethyl)benzofuran-5-yl)phenyl morpholine-4-carboxylate] | > 10 µM | > 10 µM | > 10 µM |  |  |  |
| Nc1ccc(/C=C/C(=O)NCc2cc3cc(-c4ccc(C(=O)N5CCC(F)(F)CC5)cc4)cc(-c4cccc(F)c4)c3o2)cn1 [Compound 726, (E)-3-(6-aminopyridin-3-yl)-N-((5-(4-(4,4-difluoropiperidine-1-carbonyl)phenyl)-7-(3-fluorophenyl)benzofuran-2-yl)methyl)acrylamide] |  |  |  | < 0.1 µM | 0.1 to 5 µM | < 0.1 µM |
| Nc1ccc(/C=C/C(=O)NCc2cc3cc(-c4ccc(F)c(C(=O)N5CCOCC5)c4)cc(C(F)(F)F)c3o2)cn1 [Compound 563, (E)-3-(6-aminopyridin-3-yl)-N-((5-(4-fluoro-3-(morpholine-4-carbonyl)phenyl)-7-(trifluoromethyl)benzofuran-2-yl)methyl)acrylamide] | < 0.1 µM | > 10 µM | 0.1 to 5 µM |  |  |  |
| Nc1ccc(/C=C/C(=O)NCc2cc3cc(-c4ccc(C(=O)N5CCOCC5)cc4)cc(Cl)c3o2)cc1 [Compound 550, (E)-3-(4-Aminophenyl)-N-((7-chloro-5-(4-(morpholine-4-carbonyl)phenyl)benzofuran-2-yl)methyl)acrylamide] | > 10 µM | > 10 µM | > 10 µM |  |  |  |
| Nc1ccc(/C=C/C(=O)NCc2cc3cc(-c4ccc(S(=O)(=O)N5CCC(F)(F)CC5)cc4)cc(C(F)(F)F)c3o2)cn1 [Compound 679, (E)-3-(6-aminopyridin-3-yl)-N-((5-(4-((4,4-difluoropiperidin-1-yl)sulfonyl)phenyl)-7-(trifluoromethyl)benzofuran-2-yl)methyl)acrylamide] |  |  |  | 0.1 to 5 µM | 0.1 to 5 µM | 0.1 to 5 µM |
